Source: the supplement of paper PMC5908809

Columns and labels:
[1] = test system: NKL (IL-2 2.5 ng/mL); test: percent inhibition of viability; higher = more inhibition; settings: 72 h
[2] = test system: NK-YS (IL-2 2.5 ng/mL); test: as above; settings: 72 h
[3] = test system: NK-92 (IL-2 2.5 ng/mL); test: as above; settings: 72 h
[4] = test system: normal primary NK cells, pool 2 (3 donors) (IL-2 2.5 ng/mL); test: as above; settings: 72 h
[5] = test system: YT (IL-2 2.5 ng/mL); test: as above; settings: 72 h
[6] = test system: KHYG-1 (IL-2 2.5 ng/mL); test: as above; settings: 72 h
[7] = test system: KAI3 (IL-2 2.5 ng/mL); test: as above; settings: 72 h
[8] = test system: DERL-7 (IL-2 2.5 ng/mL); test: as above; settings: 72 h
[9] = test system: normal primary NK cells, pool 1 (3 donors), resting (IL-2 0 ng/mL); test: as above; settings: 72 h
[10] = test system: normal primary NK cells, pool 1 (3 donors) (IL-2 2.5 ng/mL); test: as above; settings: 72 h
[11] = test system: SNK-6 (IL-2 2.5 ng/mL); test: as above; settings: 72 h
[12] = test system: normal primary NK cells, pool 3 (3 donors) (IL-2 2.5 ng/mL); test: as above; settings: 72 h
[13] = test system: IMC-1 (IL-2 20 ng/mL); test: as above; settings: 72 h
[14] = test system: normal NK cells expanded with K562-aAPC; test: drug sensitivity score (DSS) (DSS units); higher = more sensitive; extreme values may be limits of the assay; settings: 72 h; IL-2 2.5 ng/mL
Procedure: (§1)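 Drug sensitivity and resistance testing on K562-aAPC-expanded normal NK cells: 5 concentrations (10-fold steps over a 10,000-fold range), 72 h at 37 °C, viability by CellTiter-Glo normalised to DMSO and benzethonium chloride controls; DSS from the fitted curve.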

[15] = test system: NKL (IL-2 2.5 ng/mL); test: as above; settings: 72 h
[16] = test system: NK-YS (IL-2 2.5 ng/mL); test: as above; settings: 72 h
[17] = test system: NK-92 (IL-2 2.5 ng/mL); test: as above; settings: 72 h
[18] = test system: normal primary NK cells, pool 2 (3 donors) (IL-2 2.5 ng/mL); test: as above; settings: 72 h
[19] = test system: YT (IL-2 2.5 ng/mL); test: as above; settings: 72 h
[20] = test system: KHYG-1 (IL-2 2.5 ng/mL); test: as above; settings: 72 h
[21] = test system: KAI3 (IL-2 2.5 ng/mL); test: as above; settings: 72 h
[22] = test system: DERL-7 (IL-2 2.5 ng/mL); test: as above; settings: 72 h
[23] = test system: normal primary NK cells, pool 1 (3 donors), resting (IL-2 0 ng/mL); test: as above; settings: 72 h
[24] = test system: normal primary NK cells, pool 1 (3 donors) (IL-2 2.5 ng/mL); test: as above; settings: 72 h
[25] = test system: SNK-6 (IL-2 2.5 ng/mL); test: as above; settings: 72 h
[26] = test system: normal primary NK cells, pool 3 (3 donors) (IL-2 2.5 ng/mL); test: as above; settings: 72 h
[27] = test system: IMC-1 (IL-2 20 ng/mL); test: as above; settings: 72 h
[28] = test system: normal NK cells expanded with K562-aAPC; test: percent inhibition of viability; higher = more inhibition; settings: 72 h, IL-2 2.5 ng/mL
Procedure: as §1

COc1cc(OC2CCN(C)CC2)ccc1Nc1ncc2c(n1)n(C1CCCC1)c(=O)n2C [AZ 3146] (max concentration tested 10000 nM)
percent inhibition of viability [%]
Settings | 1 nM | 10 nM | 100 nM | 1000 nM | 10000 nM
[1] | -14.9 | -7.34 | -5.85 | 12.7 | 92.9
[2] | 1 | 1.98 | 6.37 | 19 | 93.4
[3] | 0.39 | -0.68 | 10.8 | -7.78 | 55.7
[4] | -14.1 | -0.67 | 12.1 | 6.73 | 74.2
[5] | 2.24 | 1.06 | 7.18 | 13.3 | 92.1
[6] | 3.47 | 1.13 | 9.55 | 13.1 | 104
[7] | -6.95 | -0.01 | 1.16 | 23.6 | 97.9
[8] | -4.12 | 4.05 | 2.89 | 9.9 | 98.6
[9] | 8.87 | -6.36 | 1.82 | 9.09 | 81.8
[10] | -2.73 | -14.2 | -10.5 | 0.05 | 89.1
[11] | 16.5 | 16.6 | 28.5 | 15.2 | 90
[12] | -14.2 | 1.88 | 2.52 | 5.03 | 80
[13] | -1.3 | 2.72 | 8.86 | 9.14 | 100
[28] | -2.2 | 0.53 | -2.22 | 4.68 | 95.5

Settings | drug sensitivity score
[14] | 5.96
[15] | 7.26
[16] | 8.24
[17] | 2.49
[18] | 5.18
[19] | 7.34
[20] | 7.83
[21] | 9.06
[22] | 7.08
[23] | 6.04
[24] | 4.98
[25] | 7.53
[26] | 5.18
[27] | 7.02

CNC(=O)c1cccc(-c2ccc3c(N4CCOC[C@@H]4C)nc(N4CCOC[C@@H]4C)nc3n2)c1 [AZD2014] (max concentration tested 10000 nM)
percent inhibition of viability [%]
Settings | 1 nM | 10 nM | 100 nM | 1000 nM | 10000 nM
[1] | 8.6 | 17.6 | 50.9 | 66.7 | 73
[2] | 7.61 | 7.66 | 23 | 61.5 | 81.5
[3] | 4.44 | -1.39 | 29.1 | 57.6 | 86.6
[4] | -6.11 | 7.01 | 7.49 | 28.2 | 29.1
[5] | 10.9 | 6.65 | 18.3 | 60.6 | 78.2
[6] | 8.26 | 7.2 | 12.9 | 48.3 | 87.9
[7] | 19.5 | 24.3 | 46.2 | 65.3 | 73.2
[8] | -2.59 | 6.55 | 37.5 | 74.8 | 87.2
[9] | -7.02 | 8.25 | 24.4 | 20.1 | 45.9
[10] | 5.65 | 6.16 | 19.9 | 34.6 | 35.5
[11] | 5.51 | 16.6 | 22.9 | 45 | 60.5
[12] | 0.74 | 5.96 | 9.04 | 27.7 | 27.3
[13] | -8.07 | -10.1 | -19.9 | -44.5 | 8.41
[28] | 1.08 | 8.53 | 26.5 | 39.1 | 53.6

Settings | drug sensitivity score
[14] | 10.8
[15] | 20.4
[16] | 14.4
[17] | 14.5
[18] | 5.3
[19] | 13.5
[20] | 11.2
[21] | 21
[22] | 18.6
[23] | 9.03
[24] | 8.12
[25] | 12.5
[26] | 5.08
[27] | 0

C[C@@H](Nc1cc(F)cc(F)c1)c1cc(C(=O)N(C)C)cc2c(=O)cc(N3CCOCC3)oc12 [AZD-8186] (max concentration tested 1000 nM)
percent inhibition of viability [%]
Settings | 0.1 nM | 1 nM | 10 nM | 100 nM | 1000 nM
[1] | -15.3 | -13.8 | -5.07 | -8.33 | -6.27
[2] | -5.07 | -6.92 | -2.82 | -2.72 | 4.56
[3] | -5.14 | -3.4 | -6.34 | 7.87 | 29.8
[4] | -10.7 | -2.64 | -11.3 | -1.73 | 4.08
[5] | -0.09 | -4.44 | -2.79 | 1.47 | 3.03
[6] | -0.98 | -2.42 | -2.86 | 0.88 | -3.51
[7] | -2.99 | 1.77 | 1.66 | 8.81 | 5.34
[8] | -0.61 | -0.52 | 0.73 | 12.4 | 17.2
[9] | 3.9 | -3.52 | 11.1 | 13.5 | 24.3
[10] | -5.02 | -7 | 5.11 | 5.09 | 16.9
[11] | 10 | 11.1 | -10.9 | -9.3 | -17.3
[12] | -6.84 | -3.88 | -7.48 | -5.25 | -2.65
[13] | -4.26 | -2.05 | -9.6 | -12.9 | -13.3
[28] | -7 | -2.1 | -0.27 | 1.82 | 6.33

Settings | drug sensitivity score
[14] | 0
[15] | 0
[16] | 0
[17] | 2.45
[18] | 0
[19] | 0
[20] | 0
[21] | 0
[22] | 1.36
[23] | 2.41
[24] | 0.51
[25] | 0
[26] | 0
[27] | 0
